SMILES strings stand for the structures. Where two headings read alike, the source gives them in different places.

The results in this text go back to patent publication US20200165194A1, “ADDITIVE COMPOSITION FOR CULTURE MEDIUM, ADDITIVE COMPOUND FOR CULTURE MEDIUM, AND METHOD FOR CULTURE OF CELLS OR TISSUE USING SAME” (NISSAN CHEMICAL CORPORATION, priority 2017, published 2020).

What all share (format): cell-based
Series [1] relates to a plurality of cancer cell lines. In words: Various human cancer cells-2, summary over the cell lines (Experimental Example 6). The settings on record: cancer cell lines under three-dimensional conditions. As to the method:
(§1) Various human-derived cancer cells were precultured (single layer culture) in respective media shown below. […] The above-mentioned cells in the logarithmic growth phase were washed with PBS, a 0.25 w/v % trypsin-1 mmol/L EDTA (ethylenediaminetetraacetic acid) solution (manufactured by Wako Pure Chemical Industries, Ltd.) was added, and adherent cells were detached by incubating at 37° C. for 1-5 min. Each medium was added and the mixture was centrifuged. After resuspension in the same medium, each cell was recovered.
(§2) The aforementioned various cells were suspended in respective deacylated gellan gum-containing or not containing media (deacylated gellan gum concentration was 0.015 w/v %), and seeded in a 96 well low attachment U-bottom plate (manufactured by Corning, #4520, deacylated gellan gum-free medium), or a low attachment flat bottom plate (manufactured by Corning, #3474, deacylated gellan gum-containing medium) at a cell concentration of 700-12000 cells/90 μL/well (all 3D culture). […] The amount of each compound solution to be added was 10 μL/well. As a control, a DMSO solution dissolved in a medium was added (DMSO final concentration 0.1%). […] When compared with the compound no-addition (control), one showing a value of not more than 119% as -, one showing a value of not less than 120% as ◯, and one showing a value of not less than 150% as ⊚ are shown in the eleventh table and the twelfth table. Unperformed test is left blank.

The test system of series [2] is Bone marrow-derived human mesenchymal stem cells (BM-hMSC). Put plainly: Human mesenchymal stem cell-2: 3D, EZSPHERE and 2D culture, ATP assay (Experimental Example 10). The note with it: for viability at 1 µM / viability at 5 µM / viability at 10 µM / viability at 20 µM: Homo sapiens, Mesenchymal stem cells, 96 h, read-out: relative value of RLU (number of viable cells), BM-hMSC, 4 days, non-addition = 100%. As to the method: Bone marrow-derived human mesenchymal stem cells (BM-hMSC, manufactured by PromoCell) were precultured by a single layer culture method (2D) using a mesenchymal stem cell proliferation medium (manufactured by PromoCell). In three-dimensional culture method (3D), hMSC was suspended in a medium composition added with deacylated gellan gum, and seeded in a […] flat bottom Ultr-low Attachment surface plate (manufactured by Corning Incorporated, #3474) at 6000 cells/90 μL/well. In the three-dimensional culture method using EZSPHERE (EZSPHERE), hMSC was suspended in a deacylated gellan gum-free medium composition, and seeded in a 96-well EZSPHERE plate (manufactured by AGC TECHNO GLASS CO., LTD., #4860-900) at 2000 cells/90 μL/well. In 2D, hMSC was suspended in a deacylated gellan gum-free medium composition, and seeded in a 96-well flat bottom plate (manufactured by Corning Incorporated, #3585) at 2000 cells/90 μL/well. […] As a control, DMSO was added at a final concentration of 0.1%.

The subject of series [3] is human alveolar basal epithelial adenocarcinoma-derived cell line A549. In words: Various human cancer cells-2, 3D culture, ATP assay (Experimental Example 6). The settings on record: 4 days. As to the method: as §1, §2
Series [4] has as its system human ovarian cancer cell line SKOV3. The series is described as above. The note with it: 4 days. The protocol:
as §1, §2

Series [5] relates to plural animal cell lines. Put plainly: Animal cell lines, summary over the cell lines (Experimental Example 15). The note with it: animal cell lines under three-dimensional conditions. An excerpt: Various animal cell lines were precultured (single layer culture) as follows in respective media. Chinese hamster ovary-derived cell line CHO-K1 (manufactured by DS PHARMA BIO MEDICAL, 10% fetal bovine serum (FBS, manufactured by Corning)-containing Ham's F-12 medium (manufactured by Fujifilm Wako Pure Chemical Corporation)), Cercopithecus aethiops kidney epithelium-derived cell line Vero (purchased from JCRB cell bank, 5% FBS-containing Medium 199 medium (manufactured by Life Technologies)). The above-mentioned cells in the logarithmic growth phase were washed with PBS, a 0.25 w/v % trypsin-1 mmol/L EDTA (ethylenediaminetetraacetic acid) solution (manufactured by Fujifilm Wako Pure Chemical Corporation) was added, and adherent cells were detached by incubating at 37° C. for 3 min. Each medium was added and the mixture was centrifuged and resuspended in the same medium.
The aforementioned various animal cells were suspended in respective deacylated gellan gum-containing or not containing media (deacylated gellan gum concentration was 0.02 w/v % in Ham's F-12 medium, 0.015 w/v % in Medium 199 medium), and seeded in a 96 well low attachment U-bottom plate (manufactured by Corning, #4520, deacylated gellan gum-free medium), or a low attachment flat bottom plate (manufactured by Corning, #3474, deacylated gellan gum-containing medium) at a cell concentration of 700-2000 cells/90 μL/well (all 3D culture). […] The amount of each compound solution to be added was […]. As a control, a DMSO solution dissolved in a medium was added (DMSO final concentration 0.1%). […] When compared with the compound non-addition (control), one showing a value of not more than 119% as -, one showing a value of not less than 120% as ◯, and one showing a value of not less than 150% as ⊚ are shown in the twenty-third table and the twenty-fourth table.

[6] abbreviates: low attachment U-bottom plate, 5 μM.
The mark [7] stands for this setting: low attachment U-bottom plate, 10 μM.
[8] abbreviates: low attachment flat bottom plate (gellan gum medium), 5 μM.
Where [9] appears, read: low attachment flat bottom plate (gellan gum medium), 10 μM.

Regarding `CC/C(=N\NC(=O)NCc1cccc(O)c1)c1ccc(O)c(C)c1O` [k-1:J-1], the “proliferation activity (in words)” value was “promoted proliferation activity in a plurality of cancer cell lines” in series [1], “promoted proliferation activity of BM-hMSC” in series [2] (three-dimensional cell culture conditions), “promoted proliferation activity of hMSC” in series [2] (two-dimensional cell culture conditions) and “promoted proliferation activity in plural animal cell lines” in series [5]. Further, the viability at 1 µM in series [2] (2D) was determined as 107%; in series [2] (3D (deacylated gellan gum)), 132%; in series [2] (EZSPHERE plate) it was 149%. Moreover, the viability at 5 µM in series [2] (2D) is 121%; in series [2] (3D (deacylated gellan gum)), 330%; in series [2] (EZSPHERE plate) it was 241%. Moreover, the viability at 10 µM in series [2] (2D) was found to be 146%; in series [2] (3D (deacylated gellan gum)) it was 579%; in series [2] (EZSPHERE plate), 321%. Moreover, the viability at 20 µM in series [2] (2D) is 157%; in series [2] (3D (deacylated gellan gum)) it was 773%; in series [2] (EZSPHERE plate) it was 231%. For the same compound, the “number of viable cells (RLU), relative value to control (100%)” value in series [3] (setting [6]), in series [3] (setting [7]), in series [3] (setting [8]), in series [3] (setting [9]), in series [4] (setting [6]) and in series [4] (setting [7]) was “⊙” each time. The “number of viable cells (RLU), relative value to control (100%)” value in series [4] (setting [8]) and in series [4] (setting [9]) was “⊙” each time.
